Experimental data: US20260176285A1, “SALT OF DIOXANE QUINOLINE COMPOUND, CRYSTAL FORM THEREOF, PREPARATION METHODS THEREFOR AND USES THEREOF” (Beijing Scitech-MQ Pharmaceuticals Limited, priority 2022, published 2026)

What was measured:
Format in all cases: physicochemical
[1] = Dynamic solubility in water, SGF, FaSSIF and FeSSIF; set-up: S (dynamic solubility): unit not given here; conditions: listed as Di-p-toluenesulfonate salt crystal form A-IV; for S (dynamic solubility): 37° C., feed 10 mg/mL
Description: Biological solvent Preparation • 1. […] 67.5 μL of concentrated hydrochloric acid (12 M) was added and the mixture was adjusted to a pH value of 1.8 with 1 M hydrochloric acid or 1 M NaOH solution. Purified water was added to make up to volume. • 2. Preparation of Fasted State Simulated Intestinal Fluid (FaSSIF): 0.17 g of anhydrous NaH2PO4, 0.021 g of NaOH, and 0.31 g of NaCl were weighed into a 50-mL volumetric flask. About 48 mL of purified water was added to dissolve the mixture completely, and the solution was adjusted to a pH value of 6.5 with 1 M hydrochloric acid or 1 M NaOH solution. Purified water was added to make up to volume. 0.11 g of SIF powder was added and dissolved completely. • 3. Preparation of Fed State Simulated Intestinal Fluid (FeSSIF): 0.41 mL of glacial acetic acid, 0.20 g of NaOH and 0.59 g of NaCl were weighed into a 50-mL volumetric flask. About 48 mL of purified water was added to dissolve the mixture completely, and the solution was adjusted to a pH value of 5.0 with 1 M hydrochloric acid or 1 M NaOH solution. Purified water was added to make up to volume. 0.56 g of SIF powder was added and dissolved completely.
The dynamic solubility of the free state, the mucate salt crystal form A-I, the p-toluenesulfonate salt crystal form A-II, the di-p-toluenesulfonate salt crystal form A-IV and the phosphate salt crystal form A-V of the compound of formula (I) in water and three biological solvents was evaluated.
The samples at each time point were centrifuged and filtered (0.45 μm PTFE filter head), and the HPLC concentration and pH value of the filtrate were determined.

[2] = Solid-state stability evaluation (XRPD, HPLC); conditions: listed as Di-p-toluenesulfonate salt crystal form A-IV
Description: The following 6 test samples were placed under 25° C./60% RH and 40° C./75% RH conditions for 1 week, and then the physical and chemical stability of the samples was tested by XRPD and HPLC.
At the same time, after the p-toluenesulfonate salt crystal form A-II and crystal form B-III solids were placed at 80° C. for 24 hours, the physical and chemical stability of the samples were tested by XRPD and HPLC.

[3] = Hygroscopicity by dynamic moisture sorption (DVS); conditions: DVS, listed as Di-p-toluenesulfonate salt crystal form A-IV
Description: Dynamic moisture sorption (DVS): The curves were collected on a DVS Intrinsic of SMS (Surface Measurement Systems). At 25° C., the humidity range was 0% RH-95% RH, the step was 10% (the last step was 5%), and the dm/dt was 0.002%/min.
The hygroscopicity of the free compound of formula (I), mucate salt crystal form A-I, p-toluenesulfonate salt crystal forms A-II and B-III, di-p-toluenesulfonate salt crystal form A-IV and phosphate salt crystal form A-V was evaluated by dynamic moisture sorption instrument (DVS). Starting from 0% relative humidity (0% RH), the test collected the mass change percentage of the samples under constant temperature of 25° C. with humidity changes (0% RH-95% RH-0% RH).

Structure (SMILES): O=C(Nc1ccc(F)cc1)C1(C(=O)Nc2ccc(Oc3ccnc4cc(OCCCN5CCOCC5)c5c(c34)OCCO5)c(F)c2)CC1 [Example 4, N-(3-fluoro-4-((5-(3-morpholinopropoxy)-2,3-dihydro-[1,4]dioxano[2,3-f]quinolin-10-yl)oxy)phenyl)-N-(4-fluorophenyl)cyclopropane-1,1-dicarboxamide]
- S (dynamic solubility) ([1]; FaSSIF, 1 hour): 0.035
- pH of the filtrate ([1]; FaSSIF, 1 hour): 5.6
- S (dynamic solubility) ([1]; FaSSIF, 2 hours): 0.080
- pH of the filtrate ([1]; FaSSIF, 2 hours): 5.2
- S (dynamic solubility) ([1]; FaSSIF, 4 hours): 0.16
- pH of the filtrate ([1]; FaSSIF, 4 hours): 5.0
- S (dynamic solubility) ([1]; FaSSIF, 24 hours): 0.20
- pH of the filtrate ([1]; FaSSIF, 24 hours): 5.0
- S (dynamic solubility) ([1]; FeSSIF, 1 hour): 1.6
- pH of the filtrate ([1]; FeSSIF, 1 hour): 4.9
- S (dynamic solubility) ([1]; FeSSIF, 2 hours): 1.8
- pH of the filtrate ([1]; FeSSIF, 2 hours): 4.8
- S (dynamic solubility) ([1]; FeSSIF, 4 hours): 1.4
- pH of the filtrate ([1]; FeSSIF, 4 hours): 4.8
- S (dynamic solubility) ([1]; FeSSIF, 24 hours): 1.0
- pH of the filtrate ([1]; FeSSIF, 24 hours): 4.9
- S (dynamic solubility) ([1]; H2O, 1 hour): 2.9
- pH of the filtrate ([1]; H2O, 1 hour): 3.7
- S (dynamic solubility) ([1]; H2O, 2 hours): 2.9
- pH of the filtrate ([1]; H2O, 2 hours): 3.9
- S (dynamic solubility) ([1]; H2O, 4 hours): 2.8
- pH of the filtrate ([1]; H2O, 4 hours): 3.8
- S (dynamic solubility) ([1]; H2O, 24 hours): 2.7
- pH of the filtrate ([1]; H2O, 24 hours): 3.8
- S (dynamic solubility) ([1]; SGF, 1 hour): 4.5
- pH of the filtrate ([1]; SGF, 1 hour): 1.9
- S (dynamic solubility) ([1]; SGF, 2 hours): 4.6
- pH of the filtrate ([1]; SGF, 2 hours): 1.9
- S (dynamic solubility) ([1]; SGF, 4 hours): 4.3
- pH of the filtrate ([1]; SGF, 4 hours): 1.9
- S (dynamic solubility) ([1]; SGF, 24 hours): 4.2
- pH of the filtrate ([1]; SGF, 24 hours): 1.9
- Purity ([2]; 25° C./60% RH, 1 week): 99.19 area %
- Purity/initial purity ([2]; 25° C./60% RH, 1 week): 100.0%
- Purity ([2]; 40° C./75% RH, 1 week): 99.25 area %
- Purity/initial purity ([2]; 40° C./75% RH, 1 week): 100.1%
- Purity ([2]; Starting): 99.18 area %
- Moisture adsorption (25° C./80% RH) ([3]; 25° C./80% RH): 3.70%
- Hygroscopicity ([3]; 25° C.): Hygroscopic
